Test results from US20250361269A1, “PEPTIDE EXHIBITING MUSCLE LOSS PREVENTION AND MUSCLE MASS PROMOTION ACTIVITIES, AND USE THEREOF” (CAREGEN CO., LTD., priority 2022, published 2025).

Key:
[1] = system: muscle tissue, muscle damage induced by BaCl2; assay: Western blotting of protein expression in muscle tissue from BaCl2-induced muscle damage model; assay type: in vivo, C57BL/6 mouse; settings: 20 mg peptide orally, six times, Day 7 after BaCl2 muscle damage
Experimental: 50 μl of a 1.2% (w/v) BaCl2 aqueous solution was injected into the tibialis anterior (TA) muscle of a 8-week-old male C57BL/6 mouse to induce muscle damage for 1 day. Afterwards, 20 mg of the peptide of SEQ ID NO: 1 was administered orally at a concentration of 0.1 mg/μl at 1-day intervals for a total of six times to the mouse with induced muscle damage. For a positive control group, 0.5 ug of IGF-I was injected intramuscularly at a concentration of 0.01 ug/μl. On Day 7 after inducing the muscle damage, the mouse was sacrificed, and the changes in the TA muscle were visually observed and the mouse was weighed. A non-treated group (Non) was used as a control group, a group (N.C) in which only muscle damage was induced by BaCl2 was used as a negative control group, and a group (P.C) in which muscle damage was induced by BaCl2 and then treated with IGF-I was used as a positive control group. The muscle tissue obtained from the mouse with the induced muscle damage of Example 4-1 was lysed by using homogenizer, and the lysate was dissolved by adding a dissolution buffer thereto. The resulting product was centrifuged at 4° C. and 12,000 rpm for 30 minutes to obtain proteins which were then quantified by using a BCA kit. SDS-PAGE was performed on samples containing these proteins to separate the respective proteins which were then electrotransferred onto a membrane. The membrane to which the proteins were attached was blocked by treating with 5% skim milk, and primary antibodies were allowed for a reaction overnight at 4° C. After washing with PBS-T, secondary antibodies were allowed for a reaction at room temperature for 1 hour. After washing with PBS-T again, the proteins were detected by using Gel Doc (Bio-Rad, Hercules, CA, USA) and Western detection reagents (Elpis Biotech, Daejeon, Korea). Here, anti-MyHC (Santa Cruz, USA), anti-α-actinin (Santa Cruz, USA), anti-α-SMA (Abcam, UK), anti-IL-6 (Santa Cruz, USA), and anti-a-tubulin (Santa Cruz, USA) were used as the primary antibodies.

C2C12 cells [2] = assay: Immunofluorescence of a-actinin in C2C12 myoblasts; assay type: cell-based, mouse; settings: after 7 days in differentiation medium, vs CM group
C2C12 cells [3] = assay: Immunofluorescence of myogenin (MyoG) in C2C12 myoblasts; assay type: cell-based, mouse; settings: 100 ug/ml peptide, after three days in differentiation medium
Experimental: C2C12 cells were cultured in a DMEM supplemented with 1% P/S and 2% BCS. When the cell confluency reached 70-80%, the cells were seeded into a 6-well culture plate. Afterwards, when the cell confluency in the 6-well culture plate reached 100%, the culture medium was replaced with a differentiation medium (supplemented with 1% P/S and 2% horse serum), and 100 ug/ml of the peptide of SEQ ID NO: 1 was added thereto. Afterwards, the differentiation medium and 100 ug/ml of the peptide were replaced and added, respectively, once every two days. After three days from the first day of medium replacement, the cultured cells were fixed with 4% paraformaldehyde (PFA) at room temperature for 10 minutes and permeabilized with 0.1% triton X-100 for 5 minutes. Afterwards, the fixed cells were mixed with PBS, 10% FBS, and 0.1% triton X-100 for blocking at room temperature for 1 hour, and then treated with primary antibodies (MyoG, Santa Cruz, USA). The resulting cells were incubated for 1 hour at room temperature. Afterwards, the cells were washed, and incubated again with secondary antibodies (goat anti-mouse IgG-TR, Santa Cruz, USA) at room temperature for 30 minutes. Afterwards, the cell nuclei were stained with DAPI (Santa Cruz, USA) and observed under a LEICA fluorescence microscope (TCS SP8, LEICA, Germany).

[4] = system: tibialis anterior (TA) muscle, muscle damage induced by BaCl2; assay: Muscle mass of TA muscle in BaCl2-induced muscle damage animal model; assay type: in vivo, C57BL/6 mouse; settings: 20 mg peptide orally at 1-day intervals, six times; Day 7 after BaCl2 muscle damage
Experimental: In this example, an animal model of muscle damage induced by BaCl2 was used to determine the effect of the peptide according to an embodiment on the muscle loss prevention, by evaluating changes in muscle mass, areas of infiltration of immune cells in muscle tissue, levels of accumulated collagen, and expression levels of proteins constituting muscle fibers and inflammatory proteins. 50 μl of a 1.2% (w/v) BaCl2 aqueous solution was injected into the tibialis anterior (TA) muscle of a 8-week-old male C57BL/6 mouse to induce muscle damage for 1 day. Afterwards, 20 mg of the peptide of SEQ ID NO: 1 was administered orally at a concentration of 0.1 mg/μl at 1-day intervals for a total of six times to the mouse with induced muscle damage. For a positive control group, 0.5 ug of IGF-I was injected intramuscularly at a concentration of 0.01 ug/μl. On Day 7 after inducing the muscle damage, the mouse was sacrificed, and the changes in the TA muscle were visually observed and the mouse was weighed. A non-treated group (Non) was used as a control group, a group (N.C) in which only muscle damage was induced by BaCl2 was used as a negative control group, and a group (P.C) in which muscle damage was induced by BaCl2 and then treated with IGF-I was used as a positive control group.

[5] = system: muscle tissue, muscle damage induced by BaCl2; assay: H&E staining of muscle tissue from BaCl2-induced muscle damage model; assay type: in vivo, C57BL/6 mouse; settings: 20 mg peptide orally, six times, Day 7 after BaCl2 muscle damage
Experimental: (§1) 50 μl of a 1.2% (w/v) BaCl2 aqueous solution was injected into the tibialis anterior (TA) muscle of a 8-week-old male C57BL/6 mouse to induce muscle damage for 1 day. Afterwards, 20 mg of the peptide of SEQ ID NO: 1 was administered orally at a concentration of 0.1 mg/μl at 1-day intervals for a total of six times to the mouse with induced muscle damage. For a positive control group, 0.5 ug of IGF-I was injected intramuscularly at a concentration of 0.01 ug/μl. On Day 7 after inducing the muscle damage, the mouse was sacrificed, and the changes in the TA muscle were visually observed and the mouse was weighed. A non-treated group (Non) was used as a control group, a group (N.C) in which only muscle damage was induced by BaCl2 was used as a negative control group, and a group (P.C) in which muscle damage was induced by BaCl2 and then treated with IGF-I was used as a positive control group. Muscle tissue obtained from the mouse with induced muscle damage of Example 4-1 was washed with PBS at room temperature and then fixed with 4% paraformaldehyde (PFA). Afterwards, the fixed muscle tissue was washed three times with PBS and dehydrated by using a gradient ethanol series (from 70% to 100%). A sample of the muscle tissue was sectioned into 4 μm sections. […]

C2C12 cells [6] = assay: Western blotting of early differentiation markers in C2C12 myoblasts; assay type: cell-based, mouse; settings: 5, 50, or 100 ug/ml peptide, after three days in differentiation medium, vs CM group
Experimental: In this example, by evaluating changes in the expression of an early differentiation marker protein of C2C12 cells, which are mouse myoblasts, it was to confirm the effects of the peptide according to an example on the differentiation of myoblasts into muscle cells/muscle fibers at an early differentiation stage.
The C2C12 cells were cultured in a DMEM supplemented with 1% P/S and 2% BCS. When the cell confluency reached 70-80%, the cells were seeded into 6-well culture plates. Afterwards, when the cell confluency in the 6-well culture plate reached 100%, the culture medium was replaced with a differentiation medium (supplemented with 1% P/S and 2% horse serum), and 5, 50, or 100 ug/ml of the peptide of SEQ ID NO: 1 was added thereto. Afterwards, the differentiation medium and the same amount of the peptide of SEQ ID NO: 1 were replaced and added, respectively, once every two days. After three days from the first day of medium replacement, the culture was lysed by adding a dissolution buffer thereto, and proteins were obtained by centrifugation at 4° C. and 12,000 rpm for 30 minutes. These proteins were then quantified by using a BCA kit. […] After washing with PBS-T again, the proteins were detected by using Gel Doc (Bio-Rad, Hercules, CA, USA) and Western detection reagents (Elpis Biotech, Daejeon, Korea). […]

C2C12 cells [7] = assay: Western blotting of late differentiation marker MyHC in C2C12 myoblasts; assay type: cell-based, mouse; settings: 5, 50, or 100 ug/ml peptide, after 7 days in differentiation medium, vs CM group
Experimental: The C2C12 cells were cultured in a DMEM supplemented with 1% P/S and 2% BCS. When the cell confluency reached 70-80%, the cells were seeded into 6-well culture plates. Afterwards, when the cell confluency in the 6-well culture plate reached 100%, the culture medium was replaced with a differentiation medium (supplemented with 1% P/S and 2% horse serum), and 5, 50, or 100 ug/ml of the peptide of SEQ ID NO: 1 was added thereto. Afterwards, the differentiation medium and the same amount of the peptide of SEQ ID NO: 1 were replaced and added, respectively, once every two days. […] These proteins were then quantified by using a BCA kit. SDS-PAGE was performed on samples containing these proteins to separate the respective proteins which were then electrotransferred onto a membrane. The membrane to which the proteins were attached was blocked by treating with 5% skim milk, and primary antibodies were allowed for a reaction overnight at 4° C. After washing with PBS-T, secondary antibodies were allowed for a reaction at room temperature for 1 hour. After washing with PBS-T again, the proteins were detected by using Gel Doc (Bio-Rad, Hercules, CA, USA) and Western detection reagents (Elpis Biotech, Daejeon, Korea). […]

[8] = system: muscle tissue, muscle damage induced by BaCl2; assay: Sirius red staining of muscle tissue from BaCl2-induced muscle damage model; assay type: in vivo, C57BL/6 mouse; settings: 20 mg peptide orally, six times, Day 7 after BaCl2 muscle damage
Experimental: as §1

EAEYEHL [peptide of SEQ ID NO: 1]
expression of IL-6 in damaged tissue [1]: decreased | expression of MyHC, protein constituting muscle fibers, in damaged tissue [1]: increased | expression of α-SMA, inflammatory protein, in damaged tissue [1]: decreased | expression of α-actinin in damaged tissue [1]: increased | expression of a-actinin, late differentiation marker of myoblasts (C2C12 cells [2]): increased | expression of myogenin (MyoG) (C2C12 cells [3]): increased | expression of myogenin (MyoG) in the nuclear region of myoblasts (C2C12 cells [3]): increased | muscle mass of the TA muscle [4]: increased | area of infiltration of immune cells in the tissue [5]: reduced | expression of Myf5, early differentiation marker of myoblasts (C2C12 cells [6]): increased | expression of myogenin (MyoG), early differentiation marker of myoblasts (C2C12 cells [6]): increased | expression of MyHC, late differentiation marker of myoblasts (C2C12 cells [7]): increased | accumulation of collagen in the tissue [8]: reduced
